Experimental data as given in PubChem BioAssay (NCI).
Where “and” joins values, the source holds several entries; their conditions need not be identical. Identical values can stand only once.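 How tested: cells in 96-well plates exposed to compound for 48 hours at five concentrations. Abbreviation: GI50, concentration required for 50% inhibition of growth. TGI is the concentration that stops growth completely.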

How the values were obtained:
Assay in all cases: NCI-60 cell line screen, 48 h
EKVX NSCLC = system: EKVX NSCLC
RXF 393 renal = system: RXF 393 renal
MDA-MB-435 = system: MDA-MB-435
OVCAR-8 ovarian = system: OVCAR-8 ovarian
OVCAR-4 ovarian = system: OVCAR-4 ovarian
M14 melanoma = system: M14 melanoma
HOP-62 NSCLC = system: HOP-62 NSCLC
HL-60(TB) leukemia = system: HL-60(TB) leukemia
NCI-H460 lung = system: NCI-H460 lung
SK-OV-3 ovarian = system: SK-OV-3 ovarian
LOX IMVI melanoma = system: LOX IMVI melanoma
OVCAR-3 ovarian = system: OVCAR-3 ovarian
T-47D breast = system: T-47D breast
SF-295 CNS = system: SF-295 CNS
MALME-3M melanoma = system: MALME-3M melanoma
CCRF-CEM leukemia = system: CCRF-CEM leukemia
HCT-15 colon = system: HCT-15 colon
HT29 colon = system: HT29 colon
MDA-MB-231 breast = system: MDA-MB-231 breast
SF-539 CNS = system: SF-539 CNS
HOP-92 NSCLC = system: HOP-92 NSCLC
OVCAR-5 ovarian = system: OVCAR-5 ovarian
NCI-H23 lung = system: NCI-H23 lung
A498 renal = system: A498 renal
COLO 205 colon = system: COLO 205 colon
786-0 renal = system: 786-0 renal
TK-10 renal = system: TK-10 renal
UO-31 renal = system: UO-31 renal
HS 578T breast = system: HS 578T breast
NCI-H522 lung = system: NCI-H522 lung
HCC-2998 colon = system: HCC-2998 colon
NCI/ADR-RES ovarian = system: NCI/ADR-RES ovarian
NCI-H226 lung = system: NCI-H226 lung
DU-145 prostate = system: DU-145 prostate
HCT-116 colon = system: HCT-116 colon
SN12C renal = system: SN12C renal
UACC-257 melanoma = system: UACC-257 melanoma
A549 NSCLC = system: A549 NSCLC
SK-MEL-2 melanoma = system: SK-MEL-2 melanoma
SNB-19 CNS = system: SNB-19 CNS
MCF7 breast = system: MCF7 breast
SR leukemia = system: SR leukemia
MDA-N = system: MDA-N
ACHN renal = system: ACHN renal
SK-MEL-28 melanoma = system: SK-MEL-28 melanoma
SF-268 CNS = system: SF-268 CNS
RPMI-8226 leukemia = system: RPMI-8226 leukemia
U251 CNS = system: U251 CNS
CAKI-1 renal = system: CAKI-1 renal
BT-549 breast = system: BT-549 breast
MOLT-4 leukemia = system: MOLT-4 leukemia
SNB-75 CNS = system: SNB-75 CNS
SK-MEL-5 melanoma = system: SK-MEL-5 melanoma
UACC-62 melanoma = system: UACC-62 melanoma
IGROV1 ovarian = system: IGROV1 ovarian
PC-3 prostate = system: PC-3 prostate
KM12 colon = system: KM12 colon

COc1ccc2cc1Oc1ccc(cc1)CC1c3c(cc(OC)c4c3Oc3cc5c(cc3O4)CCNC5C2)CCN1C (stereo unspecified)
GI50 (EKVX NSCLC): 1710 nM
TGI (EKVX NSCLC): 3.73 µM and 3.19 µM
GI50 (RXF 393 renal): 288 nM
TGI (RXF 393 renal): 883 nM
GI50 (MDA-MB-435): 1560 nM
TGI (MDA-MB-435): 3.43 µM and 2.9 µM
TGI (OVCAR-8 ovarian): 3.2 µM
GI50 (OVCAR-4 ovarian): 1610 nM
TGI (OVCAR-4 ovarian): 6.16 µM and 3.13 µM
GI50 (M14 melanoma): 1730 nM
TGI (M14 melanoma): 6.83 µM and 3.25 µM
GI50 (HOP-62 NSCLC): 1590 nM
TGI (HOP-62 NSCLC): 5.06 µM and 2.95 µM
TGI (HL-60(TB) leukemia): 3.67 µM
GI50 (NCI-H460 lung): 1620 nM
TGI (NCI-H460 lung): 3.25 µM
GI50 (SK-OV-3 ovarian): 1740 nM
TGI (SK-OV-3 ovarian): 15.5 µM and 3.11 µM
TGI (LOX IMVI melanoma): 3.22 µM
GI50 (OVCAR-3 ovarian): 1620 nM
TGI (OVCAR-3 ovarian): 7.41 µM and 3.07 µM
GI50 (T-47D breast): 1750 nM
TGI (T-47D breast): 3.53 µM
GI50 (SF-295 CNS): 1800 nM
TGI (SF-295 CNS): 3.42 µM and 3.23 µM
TGI (MALME-3M melanoma): 3.68 µM
TGI (CCRF-CEM leukemia): 3.61 µM
GI50 (HCT-15 colon): 1860 nM
TGI (HCT-15 colon): 3.73 µM and 4.31 µM
GI50 (HT29 colon): 626 nM
TGI (HT29 colon): 1910 nM
GI50 (MDA-MB-231 breast): 1730 nM
TGI (MDA-MB-231 breast): 3.35 µM
GI50 (SF-539 CNS): 1900 nM
TGI (SF-539 CNS): 3.23 µM and 3.69 µM
TGI (HOP-92 NSCLC): 6.76 µM
GI50 (OVCAR-5 ovarian): 1980 nM
TGI (OVCAR-5 ovarian): 15.1 µM and 3.46 µM
GI50 (NCI-H23 lung): 1530 nM
TGI (NCI-H23 lung): 4.54 µM and 3.22 µM
GI50 (A498 renal): 1640 nM
TGI (A498 renal): 3.7 µM and 3.02 µM
TGI (COLO 205 colon): 3.41 µM
GI50 (786-0 renal): 2170 nM
TGI (786-0 renal): 3.72 µM
GI50 (TK-10 renal): 1740 nM
TGI (TK-10 renal): 3.68 µM and 3.12 µM
GI50 (UO-31 renal): 1670 nM
TGI (UO-31 renal): 30.7 µM and 3.13 µM
GI50 (HS 578T breast): 1980 nM
TGI (HS 578T breast): 4.71 µM and 4.59 µM
TGI (NCI-H522 lung): 3.27 µM
GI50 (HCC-2998 colon): 1200 nM
TGI (HCC-2998 colon): 2530 nM and 2500 nM
GI50 (NCI/ADR-RES ovarian): 1550 nM
TGI (NCI/ADR-RES ovarian): 3.62 µM and 3.19 µM
GI50 (NCI-H226 lung): 2300 nM
TGI (NCI-H226 lung): 4.18 µM
GI50 (DU-145 prostate): 1540 nM
TGI (DU-145 prostate): 2870 nM
GI50 (HCT-116 colon): 1840 nM
TGI (HCT-116 colon): 3.32 µM
GI50 (SN12C renal): 1820 nM
TGI (SN12C renal): 3.89 µM and 3.3 µM
GI50 (UACC-257 melanoma): 1900 nM
TGI (UACC-257 melanoma): 3.14 µM and 3.5 µM
TGI (A549 NSCLC): 4.07 µM
GI50 (SK-MEL-2 melanoma): 2190 nM
TGI (SK-MEL-2 melanoma): 3.49 µM and 3.85 µM
TGI (SNB-19 CNS): 4.32 µM
TGI (MCF7 breast): 3.38 µM
TGI (SR leukemia): 2510 nM
GI50 (MDA-N): 1950 nM
TGI (MDA-N): 3.43 µM and 3.49 µM
GI50 (ACHN renal): 1490 nM
TGI (ACHN renal): 4.01 µM and 2.81 µM
GI50 (SK-MEL-28 melanoma): 1840 nM
TGI (SK-MEL-28 melanoma): 3.5 µM and 3.54 µM
TGI (SF-268 CNS): 3.84 µM
GI50 (RPMI-8226 leukemia): 1610 nM
TGI (RPMI-8226 leukemia): 4.3 µM and 3.42 µM
GI50 (U251 CNS): 1680 nM
TGI (U251 CNS): 3.2 µM
GI50 (CAKI-1 renal): 1670 nM
TGI (CAKI-1 renal): 5.77 µM and 3.62 µM
TGI (BT-549 breast): 8.01 µM
TGI (MOLT-4 leukemia): 3.44 µM
GI50 (SNB-75 CNS): 1680 nM
TGI (SNB-75 CNS): 3.06 µM
TGI (SK-MEL-5 melanoma): 3.98 µM
TGI (UACC-62 melanoma): 3.43 µM
GI50 (IGROV1 ovarian): 1470 nM
TGI (IGROV1 ovarian): 3.41 µM and 2.82 µM
TGI (PC-3 prostate): 3.72 µM and 3.23 µM
GI50 (KM12 colon): 1460 nM
TGI (KM12 colon): 3.33 µM and 2.85 µM
